One compound from ChEMBL document CHEMBL1122438, “2-Phenylpyrazolo[1,5-a]pyrimidin-7-ones. A new class of nonsteroidal antiinflammatory drugs devoid of ulcerogenic activity” (J Med Chem, 1983) can be followed below.

Structures are written as SMILES.

The subject of data set [1] is Rattus norvegicus. Briefly: Ulcer index at 50 mg/kg concentration. Format: functional.
Data set [2] has as its system Rattus norvegicus. Put plainly: Ulcer index at 200 mg/kg concentration. It is filed as functional.
For data set [3], the species on record is Rattus norvegicus. Briefly: Analgesic activity in acetic acid writhing test, activity is expressed as ED50 values. It is filed as functional. On the technique in general: Writhing tests count abdominal constrictions after an irritant is injected.
In data set [4] the test system is Rattus norvegicus. Briefly: Percent reduction of edema in rat on 23rd day after oral administration of 20 mg/kg in antiarthritis assay. Format: functional.
Data set [5] relates to Mus musculus. Put plainly: Acute toxicity was evaluated as number of mice (tested=7) died after 72nd hour when 225 mg/kg is administered intraperitoneally. Also on record: dose 225 mg/kg, route intraperitoneal. The note with it: in vivo, ip. It is filed as organism-based.
Data set [6] deals with Mus musculus. Put plainly: Acute toxicity was evaluated as number of mice (tested=7) died after 72nd hour when 170 mg/kg is administered intraperitoneally. Format: organism-based. Also on record: dose 170 mg/kg, route intraperitoneal. The settings on record: in vivo, ip.
Data set [7] deals with Mus musculus. Briefly: Acute toxicity was evaluated as number of mice (tested=7) died after 72nd hour when 300 mg/kg is administered intraperitoneally. Format: organism-based. Also on record: dose 300 mg/kg, route intraperitoneal. The note with it: in vivo, ip.
Data set [8] concerns Rattus norvegicus. Put plainly: Antiinflammatory activity evaluated by measuring % reduction of edema, 3h after oral administration of 10 mg/kg in carrageenan model. Format: functional.
Data set [9] has as its system Rattus norvegicus. Briefly: Antiinflammatory activity evaluated by measuring % reduction of edema, 3h after oral administration of 50 mg/kg in carrageenan model. Format: functional.
Data set [10] relates to Mus musculus. Put plainly: Analgesic activity evaluated by measuring % analgesic effect, after oral administration of 300 mg/kg in acetic acid writhing test. It is filed as functional.
Data set [11] is described as follows: Toxic activity is expressed as LD50 values. It is filed as toxicity, organism-based. The note with it: mouse, in vivo.
Data set [12] deals with Rattus norvegicus. Briefly: Antiinflammatory activity evaluated by measuring % reduction of edema, 3h after oral administration of 25 mg/kg in carrageenan model. It is filed as functional.
The nature of data set [13]: Therapeutic index was expressed as LD50/ED50 carragreenin model. The settings on record: mouse; read-out: TI.
The species named for data set [14] is Rattus norvegicus. Put plainly: Antiinflammatory activity in carrageenan model, activity is expressed as ED50 values. It is filed as functional.
Data set [15] has as its system Mus musculus. Put plainly: Acute toxicity was evaluated as number of mice (tested=7) died after 72nd hour when 350 mg/kg is administered intraperitoneally. It is filed as organism-based. Also on record: dose 350 mg/kg, route intraperitoneal. The settings on record: in vivo, ip.
Data set [16] deals with Rattus norvegicus. Briefly: Ulcer index at 100 mg/kg concentration. It is filed as functional.
The species named for data set [17] is Rattus norvegicus. Put plainly: Median ulcerogenic dose was determined. Format: functional.
Data set [18] relates to Mus musculus. Put plainly: Analgesic activity evaluated by measuring % analgesic effect, after oral administration of 500 mg/kg in acetic acid writhing test. Format: functional.
The test system of data set [19] is Mus musculus. Put plainly: Percent reduction of edema in mice 3h after oral administration of 20 mg/kg in carrageenan model. It is filed as functional.

For the compound `CCCCC1C(=O)N(c2ccccc2)N(c2ccccc2)C1=O` [PHENYLBUTAZONE], the UI with Rattus norvegicus [1] came to 1.35; in the data set on Rattus norvegicus [2], 3.2; with Rattus norvegicus [16], 2.55. In addition, the median effective dose (ED50) (commonly the midpoint of the dose-response relation) amounted to 274 mg/kg in the data set listed under Rattus norvegicus [3] and 13.1 mg/kg in the data set listed under Rattus norvegicus [14]. The Reduction is 20.7% with Rattus norvegicus [4]; 48.7% in the data set with Rattus norvegicus [8]; 62.9% in the data set with Rattus norvegicus [9]; 52.9% in the data set on Rattus norvegicus [12]; 52.9% in the data set with Mus musculus [19]. The Acute toxicity came to 2 in the data set with Mus musculus [5], 0 in the data set on Mus musculus [6], 4 with Mus musculus [7] and 7 with Mus musculus [15]. For the same compound, the Analgesic effect in the data set with Mus musculus [10] is on record as 57.7%; in the data set on Mus musculus [18] it was 73%. The LD50 (in general, the dose expected to kill half of the subjects tested) in data set [11] was found to be 238 mg/kg. The selectivity ratio in data set [13] is 18.2. In the data set listed under Rattus norvegicus [17], this compound had a UD50 of 72.4 mg/kg.
